One data set has as its target T1, mouse AhR (mAhR) (Mus musculus, UniProt P30561).
T1 sequence (P30561 10-805): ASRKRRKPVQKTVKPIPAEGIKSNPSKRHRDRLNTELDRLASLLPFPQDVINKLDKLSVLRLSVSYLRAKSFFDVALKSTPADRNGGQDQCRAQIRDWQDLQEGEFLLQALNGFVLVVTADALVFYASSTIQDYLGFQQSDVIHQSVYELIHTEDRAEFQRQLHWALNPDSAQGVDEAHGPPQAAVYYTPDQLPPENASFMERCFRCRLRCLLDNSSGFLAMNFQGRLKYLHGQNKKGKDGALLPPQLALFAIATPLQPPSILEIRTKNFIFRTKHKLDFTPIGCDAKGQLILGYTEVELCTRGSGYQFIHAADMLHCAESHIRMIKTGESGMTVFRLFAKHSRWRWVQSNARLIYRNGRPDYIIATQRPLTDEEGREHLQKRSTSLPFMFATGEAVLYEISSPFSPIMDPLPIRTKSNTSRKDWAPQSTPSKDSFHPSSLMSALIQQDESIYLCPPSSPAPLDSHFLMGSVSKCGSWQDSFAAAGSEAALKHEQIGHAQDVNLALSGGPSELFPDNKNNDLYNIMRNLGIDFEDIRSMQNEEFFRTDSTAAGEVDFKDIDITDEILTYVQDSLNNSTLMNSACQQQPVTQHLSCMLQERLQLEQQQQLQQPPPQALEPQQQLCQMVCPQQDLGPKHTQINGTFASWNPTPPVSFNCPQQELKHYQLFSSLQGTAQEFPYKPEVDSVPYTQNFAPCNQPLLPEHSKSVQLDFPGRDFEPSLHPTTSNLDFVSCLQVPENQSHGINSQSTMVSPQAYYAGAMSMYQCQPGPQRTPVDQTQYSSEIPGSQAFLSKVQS
Nature of the data set: AhR-responsive luciferase reporter gene assay in stably transfected mouse H1L6.1c3 hepatoma cells. It counts as cell-based. In general terms: A reporter such as luciferase makes a cellular process visible.

The target in a further data set is T2, human AhR (hAhR) (Homo sapiens, UniProt P35869).
T2 sequence (P35869 11-848): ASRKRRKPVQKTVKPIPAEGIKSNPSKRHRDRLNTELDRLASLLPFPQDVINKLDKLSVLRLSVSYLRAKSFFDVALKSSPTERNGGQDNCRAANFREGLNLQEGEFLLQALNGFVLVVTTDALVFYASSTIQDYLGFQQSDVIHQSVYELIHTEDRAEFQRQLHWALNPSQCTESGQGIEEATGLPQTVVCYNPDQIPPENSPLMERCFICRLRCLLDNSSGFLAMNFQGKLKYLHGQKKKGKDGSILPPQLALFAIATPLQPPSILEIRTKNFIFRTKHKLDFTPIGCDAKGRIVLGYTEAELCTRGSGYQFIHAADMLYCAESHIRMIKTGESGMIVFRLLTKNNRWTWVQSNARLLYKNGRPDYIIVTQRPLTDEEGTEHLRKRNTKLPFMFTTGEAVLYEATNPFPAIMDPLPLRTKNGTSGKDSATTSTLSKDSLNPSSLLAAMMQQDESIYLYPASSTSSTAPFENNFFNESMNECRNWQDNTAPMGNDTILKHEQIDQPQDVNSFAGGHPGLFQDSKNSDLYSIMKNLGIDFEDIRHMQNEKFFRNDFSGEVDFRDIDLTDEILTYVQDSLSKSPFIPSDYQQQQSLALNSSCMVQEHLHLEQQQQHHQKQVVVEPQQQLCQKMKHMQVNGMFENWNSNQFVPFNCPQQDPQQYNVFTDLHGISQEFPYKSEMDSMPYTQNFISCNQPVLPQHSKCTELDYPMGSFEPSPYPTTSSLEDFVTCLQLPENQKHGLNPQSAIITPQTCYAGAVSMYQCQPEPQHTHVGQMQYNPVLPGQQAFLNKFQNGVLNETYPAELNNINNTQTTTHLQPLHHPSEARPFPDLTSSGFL
Nature of the data set: AhR-responsive luciferase reporter gene assay in stably transfected human HG2L6.1c1 hepatoma cells.

The test system of the next data set is T3, mutant A349T mAhR.
T3 construct: contains a full-length mAhR cDNA in which the mouse PASB LBD was replaced; expressed in transfected cells; host or cells: COS-1
The experiment in a line: Transient transfection luciferase reporter assay in COS-1 cells, A349T mAhR. The note with it: COS-1 cells cotransfected with A349T mAhR; TCDD 10 nM, IR 1 µM, 18–20 h. It counts as cell-based, mouse.

In data set [1] the target is T4, hAhR (Homo sapiens, UniProt P35869). As to conditions: COS-1 cells cotransfected with hAhR; TCDD 10 nM, IR 1 µM, 18–20 h.
A further data set addresses mAhR-hAhRLBD (Mus musculus; Homo sapiens, UniProt P30561+P35869). The note with it: COS-1 cells cotransfected with mAhR-hAhRLBD; TCDD 10 nM, IR 1 µM, 18–20 h.
In data set [2] the test system is AhR. The note with it: human hepatoma cells ref 23; cited from earlier work.
For data set [3], the system named is AhR. The note with it: mouse hepatoma cells ref 23; cited from earlier work.
The target in a further data set is T5, mutant mAhR Q299R (Mus musculus, UniProt P30561, M324I/Q299R).
T5 construct: made in house; host or cells: in vitro transcription/translation, rabbit reticulocyte lysate
Nature of the data set: AhR DNA binding (gel retardation) assay, Q299R mAhR. It counts as biochemical.

In a further data set the target is T6, mutant mAhR L300I (Mus musculus, UniProt P30561, L300I/M324I).
T6 construct: made in house; host or cells: in vitro transcription/translation, rabbit reticulocyte lysate
The experiment in a line: AhR DNA binding (gel retardation) assay, L300I mAhR. It counts as biochemical.

The target in the next data set is T7, mutant mAhR I301V (Mus musculus, UniProt P30561, I301V/M324I).
T7 construct: made in house; host or cells: in vitro transcription/translation, rabbit reticulocyte lysate
The experiment in a line: AhR DNA binding (gel retardation) assay, I301V mAhR. It counts as biochemical.

The next data set has as its target T8, mutant mAhR V307A (Mus musculus, UniProt P30561, M324I/V307A).
T8 construct: made in house; host or cells: in vitro transcription/translation, rabbit reticulocyte lysate
Nature of the data set: AhR DNA binding (gel retardation) assay, V307A mAhR. It counts as biochemical.

A further data set deals with T9, mutant mAhR I324M (Mus musculus, UniProt P30561).
T9 construct: made in house; host or cells: in vitro transcription/translation, rabbit reticulocyte lysate
The experiment in a line: AhR DNA binding (gel retardation) assay, I324M mAhR. It counts as biochemical.

The target of the next data set is T10, mutant mAhR H326Y (Mus musculus, UniProt P30561, H326Y/M324I).
T10 construct: made in house; host or cells: in vitro transcription/translation, rabbit reticulocyte lysate
The experiment in a line: AhR DNA binding (gel retardation) assay, H326Y mAhR. It counts as biochemical.

A further data set addresses T11, mutant mAhR T343I (Mus musculus, UniProt P30561, M324I/T343I).
T11 construct: made in house; host or cells: in vitro transcription/translation, rabbit reticulocyte lysate
Nature of the data set: AhR DNA binding (gel retardation) assay, T343I mAhR. It counts as biochemical.

In a further data set the target is T12, mutant mAhR H351N (Mus musculus, UniProt P30561, H351N/M324I).
T12 construct: made in house; host or cells: in vitro transcription/translation, rabbit reticulocyte lysate
Nature of the data set: AhR DNA binding (gel retardation) assay, H351N mAhR. It counts as biochemical.

Another data set addresses T13, mutant mAhR S352N (Mus musculus, UniProt P30561, M324I/S352N).
T13 construct: made in house; host or cells: in vitro transcription/translation, rabbit reticulocyte lysate
The experiment in a line: AhR DNA binding (gel retardation) assay, S352N mAhR. It counts as biochemical.

Another data set deals with T14, mutant mAhR R355T (Mus musculus, UniProt P30561, M324I/R355T).
T14 construct: made in house; host or cells: in vitro transcription/translation, rabbit reticulocyte lysate
Nature of the data set: AhR DNA binding (gel retardation) assay, R355T mAhR. It counts as biochemical.

For another data set, the target named is T15, mutant mAhR A375V (Mus musculus, UniProt P30561, A375V/M324I).
T15 construct: made in house; host or cells: in vitro transcription/translation, rabbit reticulocyte lysate
Nature of the data set: biochemical.

Another data set deals with T16, mutant hAhR T355A (Homo sapiens, UniProt P35869, T355A).
T16 construct: made in house; host or cells: in vitro transcription/translation, rabbit reticulocyte lysate
The experiment in a line: AhR DNA binding (gel retardation) assay, T355A hAhR. It counts as biochemical.

Another data set concerns the target T17, mutant hAhR V381A (Homo sapiens, UniProt P35869, V381A).
T17 construct: made in house; host or cells: in vitro transcription/translation, rabbit reticulocyte lysate
Nature of the data set: AhR DNA binding (gel retardation) assay, V381A hAhR. It counts as biochemical.

Another data set concerns the target T18, mutant hAhR Y332H (Homo sapiens, UniProt P35869, Y332H).
T18 construct: made in house; host or cells: in vitro transcription/translation, rabbit reticulocyte lysate
The experiment in a line: AhR DNA binding (gel retardation) assay, Y332H hAhR. It counts as biochemical.

For another data set, the system named is T19, wild-type mAhR.
T19 construct: contains a full-length mAhR cDNA in which the mouse PASB LBD was replaced; expressed in transfected cells; host or cells: COS-1
The experiment in a line: Transient transfection luciferase reporter assay in COS-1 cells, wild-type mAhR. It counts as cell-based, mouse. As to conditions: COS-1 cells cotransfected with wild-type mAhR; TCDD 10 nM, IR 1 µM, 18–20 h.

Data set [4] has as its system mAhR A375V. The note with it: A375V versus high-affinity mAhR ref 27, 28; cited from earlier work.
Data set [5] relates to mAhR A375V. The note with it: A375V versus high-affinity mAhR ref 27, 28; cited from earlier work. The source holds these as a separate data set.
In another data set the target is mutant mAhR A349T (Mus musculus, UniProt P30561, A349T/M324I). Nature of the data set: biochemical. The arrangement: made in house; host or cells: in vitro transcription/translation, rabbit reticulocyte lysate.
In a further data set the target is mAhR (Mus musculus, UniProt P30561, M324I). Nature of the data set: biochemical. The arrangement: made in house; host or cells: in vitro transcription/translation, rabbit reticulocyte lysate (Promega TNT).
In data set [6] the target is T4, hAhR. Nature of the data set: biochemical. The arrangement: only occur within the full length hAhR and not in the mAhR-hAhRLBD chimera; made in house; host or cells: in vitro transcription/translation, rabbit reticulocyte lysate.
Setting [7] is: mouse H1L6.1c3 hepatoma cells, 4 h, mean ± SD of nine analyses, read-out: EC50 to stimulate luciferase reporter gene expression, Mouse.

Molecules are shown by their SMILES. Read-outs that look alike come from different tables or passages of the source.

T15 sequence (P30561 10-805 M324I/A375V limits assumed): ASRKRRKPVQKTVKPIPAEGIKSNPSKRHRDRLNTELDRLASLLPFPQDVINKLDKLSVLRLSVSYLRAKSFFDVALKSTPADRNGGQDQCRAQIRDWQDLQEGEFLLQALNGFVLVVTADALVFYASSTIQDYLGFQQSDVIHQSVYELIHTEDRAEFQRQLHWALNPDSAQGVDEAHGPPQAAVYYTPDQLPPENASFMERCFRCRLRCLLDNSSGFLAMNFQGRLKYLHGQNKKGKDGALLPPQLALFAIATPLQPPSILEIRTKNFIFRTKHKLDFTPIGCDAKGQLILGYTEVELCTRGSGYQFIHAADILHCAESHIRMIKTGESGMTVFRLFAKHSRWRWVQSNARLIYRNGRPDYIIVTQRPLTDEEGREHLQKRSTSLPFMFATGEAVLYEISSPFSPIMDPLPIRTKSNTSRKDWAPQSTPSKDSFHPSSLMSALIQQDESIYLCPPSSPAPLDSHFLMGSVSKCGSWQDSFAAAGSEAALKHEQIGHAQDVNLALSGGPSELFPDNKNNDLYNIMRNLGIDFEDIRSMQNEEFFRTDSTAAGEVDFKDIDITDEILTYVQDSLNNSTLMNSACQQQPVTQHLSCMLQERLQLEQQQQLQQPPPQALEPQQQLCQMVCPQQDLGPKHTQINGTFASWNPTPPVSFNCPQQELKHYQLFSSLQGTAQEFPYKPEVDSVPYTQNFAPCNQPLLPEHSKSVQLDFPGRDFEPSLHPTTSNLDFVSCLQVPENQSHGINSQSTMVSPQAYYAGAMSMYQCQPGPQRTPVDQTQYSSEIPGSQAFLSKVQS
T15 sequence (P53762 whole entry partner): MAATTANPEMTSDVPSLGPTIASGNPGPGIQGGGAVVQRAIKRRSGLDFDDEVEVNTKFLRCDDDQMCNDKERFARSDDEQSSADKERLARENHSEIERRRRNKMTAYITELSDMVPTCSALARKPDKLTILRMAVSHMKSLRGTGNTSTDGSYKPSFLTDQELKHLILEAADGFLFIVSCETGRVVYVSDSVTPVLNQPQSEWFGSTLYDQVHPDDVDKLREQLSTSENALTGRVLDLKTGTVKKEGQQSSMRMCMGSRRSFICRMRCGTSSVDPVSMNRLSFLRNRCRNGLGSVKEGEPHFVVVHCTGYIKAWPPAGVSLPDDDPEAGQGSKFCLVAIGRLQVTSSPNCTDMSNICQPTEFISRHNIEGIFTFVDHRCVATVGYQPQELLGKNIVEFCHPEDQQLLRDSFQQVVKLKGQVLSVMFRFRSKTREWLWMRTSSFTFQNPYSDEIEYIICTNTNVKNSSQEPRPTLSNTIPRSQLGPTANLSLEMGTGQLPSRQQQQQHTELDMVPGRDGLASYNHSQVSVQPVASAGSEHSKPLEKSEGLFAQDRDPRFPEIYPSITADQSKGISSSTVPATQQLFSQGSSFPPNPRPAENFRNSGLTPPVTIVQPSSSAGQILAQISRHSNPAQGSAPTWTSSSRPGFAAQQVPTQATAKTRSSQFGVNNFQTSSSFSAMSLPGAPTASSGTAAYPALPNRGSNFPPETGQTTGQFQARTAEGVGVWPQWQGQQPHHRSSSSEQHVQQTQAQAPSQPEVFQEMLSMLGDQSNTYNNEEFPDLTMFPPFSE
Sequence of mutant mAhR A349T (P30561 10-805 M324I/A349T limits assumed): as the sequence (P30561 10-805 M324I/A375V limits assumed) above, with A340T, V366A counted along it
Sequence of mutant mAhR A349T (P53762 whole entry partner): as the sequence (P53762 whole entry partner) above
T17 sequence (P35869 11-848 V381A): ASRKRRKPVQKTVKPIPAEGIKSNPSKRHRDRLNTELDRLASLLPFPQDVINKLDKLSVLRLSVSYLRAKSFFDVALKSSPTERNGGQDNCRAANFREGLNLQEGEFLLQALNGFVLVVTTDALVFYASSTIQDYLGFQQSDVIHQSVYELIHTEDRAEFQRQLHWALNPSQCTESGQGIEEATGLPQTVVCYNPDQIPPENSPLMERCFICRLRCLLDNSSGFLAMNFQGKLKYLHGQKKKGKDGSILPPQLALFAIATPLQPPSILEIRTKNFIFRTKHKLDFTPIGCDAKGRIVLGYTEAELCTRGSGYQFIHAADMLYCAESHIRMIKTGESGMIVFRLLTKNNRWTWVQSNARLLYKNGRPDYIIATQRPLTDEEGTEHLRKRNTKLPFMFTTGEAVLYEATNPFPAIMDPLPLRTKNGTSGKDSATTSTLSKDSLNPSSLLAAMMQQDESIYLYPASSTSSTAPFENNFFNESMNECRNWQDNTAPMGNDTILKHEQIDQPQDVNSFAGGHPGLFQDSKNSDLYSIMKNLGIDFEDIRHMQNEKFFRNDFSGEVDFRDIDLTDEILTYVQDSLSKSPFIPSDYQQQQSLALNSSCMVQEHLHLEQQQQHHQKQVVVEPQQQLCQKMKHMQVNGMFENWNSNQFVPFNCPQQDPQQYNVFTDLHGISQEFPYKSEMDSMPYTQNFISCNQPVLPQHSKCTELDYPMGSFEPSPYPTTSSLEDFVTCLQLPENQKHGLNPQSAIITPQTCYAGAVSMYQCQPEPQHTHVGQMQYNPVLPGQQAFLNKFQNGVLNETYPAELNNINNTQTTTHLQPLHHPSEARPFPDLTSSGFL
T17 sequence (P27540 whole entry partner): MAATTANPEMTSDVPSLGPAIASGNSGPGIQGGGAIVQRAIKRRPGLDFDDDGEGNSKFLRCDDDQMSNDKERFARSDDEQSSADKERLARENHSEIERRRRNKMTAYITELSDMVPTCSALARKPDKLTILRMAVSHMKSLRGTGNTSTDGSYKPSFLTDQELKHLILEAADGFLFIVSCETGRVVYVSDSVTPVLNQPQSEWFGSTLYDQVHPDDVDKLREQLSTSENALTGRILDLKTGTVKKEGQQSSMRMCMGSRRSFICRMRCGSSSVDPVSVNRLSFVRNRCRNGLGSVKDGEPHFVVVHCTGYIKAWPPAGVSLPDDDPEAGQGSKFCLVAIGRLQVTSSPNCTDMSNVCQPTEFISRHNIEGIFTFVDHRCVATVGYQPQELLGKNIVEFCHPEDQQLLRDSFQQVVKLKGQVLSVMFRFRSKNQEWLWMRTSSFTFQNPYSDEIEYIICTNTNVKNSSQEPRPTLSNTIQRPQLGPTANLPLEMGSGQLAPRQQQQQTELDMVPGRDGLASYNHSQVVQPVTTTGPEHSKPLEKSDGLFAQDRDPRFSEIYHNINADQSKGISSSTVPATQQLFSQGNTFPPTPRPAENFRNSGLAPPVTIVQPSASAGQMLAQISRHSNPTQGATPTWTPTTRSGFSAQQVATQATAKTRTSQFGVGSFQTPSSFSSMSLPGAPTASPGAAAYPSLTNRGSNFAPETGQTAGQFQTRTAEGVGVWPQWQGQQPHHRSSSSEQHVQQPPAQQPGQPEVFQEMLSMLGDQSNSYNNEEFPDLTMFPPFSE
T7 sequence (P30561 10-805 I301V/M324I limits assumed): as the sequence (P30561 10-805 M324I/A375V limits assumed) above, with I292V, V366A counted along it
T7 sequence (P53762 whole entry partner): as the sequence (P53762 whole entry partner) above

One may read the EC50 as the concentration that produces a half-maximal response. Consider `Cc1ccc2cc3c(ccc4ccccc43)c3c2c1CC3` [3-MC, 3-Methylcholanthrene], for which the half-maximal effective concentration (EC50) at mouse AhR (mAhR) (setting [7]) is 1.49 ± 0.01 nM; at human AhR (hAhR) it was 14.6 ± 3.51 nM. Moreover, the “maximal level of reporter gene induction” value on human AhR (hAhR) (human HG2L6.1c1 cells, relative to TCDD) is on record as “maximal induction was not observed”.
On to `O=C1Nc2ccccc2/C1=C1/Nc2ccccc2C1=O` [IR, indirubin], for which the EC50 on mouse AhR (mAhR) (mouse) is 15.6 ± 3.52 nM. The “induction of luciferase activity, IR versus TCDD” value in the data set on mutant A349T mAhR, on hAhR [1] and at mAhR-hAhRLBD was “significantly more efficacious inducer than TCDD” in each case. Moreover, the “maximal induction compared with wild-type mAhR” value with mutant A349T mAhR is listed as “significantly increased above that of wild-type mAhR”. Further, the “greater potency than TCDD as inducer of AhR-dependent gene expression” value in the data set on AhR [2] is on record as 10 fold. Also, in the data set with AhR [3], the “less potent than TCDD as inducer of AhR-dependent gene expression” value is recorded as ~ 10 fold. For the same compound, on human AhR (hAhR) (human HG2L6.1c1 cells), the “more potent than TCDD, reporter gene induction” value is ~ 7 fold.
At mouse AhR (mAhR) (mouse), `Clc1cc2c(cc1Cl)Oc1cc(Cl)c(Cl)cc1O2` [TCDD, 2,3,7,8-tetrachlorodibenzo-p-dioxin] yielded an EC50 at 4 h of 0.027 ± 0.01 nM. For the same compound, the EC50 on mutant mAhR Q299R was found to be 2.29 ± 0.12 nM; on mutant mAhR L300I, 1.42 ± 0.61 nM; at mutant mAhR I301V, 2.09 ± 0.01 nM; at mutant mAhR V307A, 4.25 ± 0.12 nM; on mutant mAhR I324M, 2.92 ± 0.14 nM; on mutant mAhR H326Y, 0.62 ± 0.52 nM. For the same compound, the EC50 at mutant mAhR T343I is 1.79 ± 0.12 nM; on mutant mAhR H351N, 0.73 ± 0.04 nM; at mutant mAhR S352N, 4.34 ± 0.26 nM; on mutant mAhR R355T, 0.94 ± 0.06 nM; on mutant mAhR A375V, 5.25 ± 0.56 nM; on mutant hAhR T355A, 2.32 ± 0.82 nM. The EC50 turned out to be 2.99 ± 0.65 nM on mutant hAhR V381A; 0.59 ± 0.6 nM at mutant hAhR Y332H; 3.86 ± 1.06 nM at mutant mAhR A349T; 0.26 ± 0.07 nM on human AhR (hAhR); 2.48 ± 0.54 nM on mAhR; 2.46 ± 0.9 nM on hAhR [6]. The “induction of luciferase activity, TCDD versus IR” value in the data set with wild-type mAhR was “comparable to IR”. Moreover, the “maximal induction compared with wild-type mAhR” value with mutant A349T mAhR is listed as “significantly repressed compared to wild-type mAhR”. In the data set with mAhR A375V [4], the “lower affinity of the mAhR after mutation A375V” value is on record as ~ 10 fold. For the same compound, the “lower activation potency of the mAhR after mutation A375V” value with mAhR A375V [5] is given as ~ 10 fold.
Consider `Clc1cc2oc3cc(Cl)c(Cl)cc3c2cc1Cl` [TCDF, 2,3,7,8-tetrachlorodibenzofuran], for which the EC50 was 1.25 ± 0.65 nM on mouse AhR (mAhR) (setting [7]) and 4.1 ± 0.79 nM on human AhR (hAhR).

These data come from PMC6165432 (International Journal of Molecular Sciences, 2018).
